Laboratory results published in paper PMC10033409, “Autoregulation of GPCR signalling through the third intracellular loop” (Nature, 2023).
Several values for one entry are separate records, joined by “and”; a condition that tells them apart may be missing. Equal values may be shown once. Where a name gives a salt, the structure may show the parent alone. Read-outs that look alike come from different tables or passages of the source.

Legend:
β2AR [1] = assay: cAMP accumulation (cAMP-Glo), β2AR; type: cell-based, human; details: for cAMP response (Average): β2AR L258Azi
[2] = test system: endogenous adrenergic receptors in HEK 293T cells; assay: cAMP accumulation, untransfected cells; type: cell-based, human; details: untransfected HEK 293T cells; Isoproterenol 10 µM
Experimental: Resuspended cells were added 1:1 with a 2× concentration of ligand (10 µl final) into an opaque 384-well flat bottom plate (Greiner Bio-One). […]. for FSK inhibition assays with β-ARs, 100 µM metoprolol was used. For dose–response curves, a saturating concentration of forskolin (10 µM) was included as a control to measure cAMP stimulation independent of the transfected receptor. For experiments comparing multiple receptors measuring non-cognate or secondary Gs signalling (Fig. 4e, Extended Data Fig. 8i–k), 500 µM 3-isobutyl-1-methylxanthine (IBMX) was used to inhibit phosphodiesterase activity. For all other experiments, no IBMX was used to minimize cAMP accumulation from endogenous receptors (Extended Data Fig. 6a). For experiments in Fig. 2g and Extended Data Fig. 6b,e, plates were incubated at 37 °C for 10 min to stimulate cAMP production. For all other experiments, plates were incubated at room temperature for 10 min. […] Reactions were quenched and processed for the cAMP-Glo Assay (Promega) following the manufacturer’s instructions. Luminescence was measured on a Tecan Spark plate reader (500 ms integration, one measurement per well). […]

β2AR [3] = details: for competition binding curve vs isoproterenol (Extended Data Figure 3M), Fit: fitted curve; for competition binding curve vs isoproterenol (Extended Data Figure 3M): replicates 1-3 and Average
Experimental: Reactions were equilibrated, washed, and measured following the same procedure listed above for the radioligand antagonist-binding assay. […] Weighted averages of these IC50 values were used for comparison purposes and inhibition constant (Ki) calculations. […] Binding assays were performed in technical duplicates. Three biological replicates were collected with different membrane preparations for each replicate.

[4] = Sensor + Gs-peptide, Isoproterenol 1.00E-03 M
[5] = Sensor + Gs-peptide, Isoproterenol 1.00E-04 M
[6] = Sensor + Gs-peptide, Isoproterenol 1.00E-05 M
[7] = Sensor + Gs-peptide, Isoproterenol 1.00E-06 M
[8] = Sensor + Gs-peptide, Isoproterenol 1.00E-07 M
[9] = Sensor + Gs-peptide, Isoproterenol 1.00E-08 M
[10] = Sensor + Gs-peptide, Isoproterenol 1.00E-09 M
[11] = Sensor + Gs-peptide, Isoproterenol 1.00E-10 M
[12] = Sensor, Isoproterenol 1.00E-03 M
[13] = Sensor, Isoproterenol 1.00E-05 M
[14] = Sensor, Isoproterenol 1.00E-06 M
[15] = Sensor, Isoproterenol 1.00E-07 M
[16] = Sensor, Isoproterenol 1.00E-08 M
[17] = Sensor, Isoproterenol 1.00E-09 M

## CC(C)NCC(O)c1ccc(O)c(O)c1 (stereo not drawn) [Isoproterenol, isoproterenol (+)-bitartrate salt]
β2AR [1]; β2AR L258 (L258Azi), fit of the isoproterenol concentration-response of Extended Data Figure 3B
  Emax (Average): 1.23E+05
β2AR [1]; Log (Isoproterenol (M)) -4
  cAMP response (Average): 1.30E+05
β2AR [1]; Log (Isoproterenol (M)) -5
  cAMP response (Average): 1.30E+05
β2AR [1]; Log (Isoproterenol (M)) -6
  cAMP response (Average): 1.28E+05
β2AR [1]; Log (Isoproterenol (M)) -7
  cAMP response (Average): 1.04E+05
β2AR [1]; Log (Isoproterenol (M)) -7.52288
  cAMP response (Average): 1.08E+05
β2AR [1]; Log (Isoproterenol (M)) -8
  cAMP response (Average): 1.10E+05
β2AR [1]; Log (Isoproterenol (M)) -8.52288
  cAMP response (Average): 6.79E+04
β2AR [1]; Log (Isoproterenol (M)) -9
  cAMP response (Average): 4.10E+04
β2AR [1]; Log (Isoproterenol (M)) -9.52288
  cAMP response (Average): 2.28E+04
β2AR [1]; Log (Isoproterenol (M)) -10
  cAMP response (Average): -8.91E+03
β2AR [1]; Log (Isoproterenol (M)) -10.5229
  cAMP response (Average): -2.86E+04
β2AR [1]; Log (Isoproterenol (M)) -11
  cAMP response (Average): -9.58E+03
β2AR [1]; Log (Isoproterenol (M)) -12
  cAMP response (Average): -4.68E+03
β2AR [1]; Log (Isoproterenol (M)) -13
  cAMP response (Average): 2.29E+03
[2]
  cAMP generated from endogenous receptors: only detected in the presence of 500 µM IBMX
β2AR [3]; [4]
  competition binding curve vs isoproterenol (Extended Data Figure 3M), Fit: 1.12
  competition binding curve vs isoproterenol (Extended Data Figure 3M): 0.73 and -0.00169
β2AR [3]; [5]
  competition binding curve vs isoproterenol (Extended Data Figure 3M), Fit: 1.39
  competition binding curve vs isoproterenol (Extended Data Figure 3M): 1.06 and 1.58 and 0.34 and 1.27
β2AR [3]; [6]
  competition binding curve vs isoproterenol (Extended Data Figure 3M), Fit: 3.99
  competition binding curve vs isoproterenol (Extended Data Figure 3M): 5.22 and 6.17 and 4.29 and 5.19
β2AR [3]; [7]
  competition binding curve vs isoproterenol (Extended Data Figure 3M), Fit: 22.44
  competition binding curve vs isoproterenol (Extended Data Figure 3M): 22.22 and 23.42 and 21.91 and 21.33
β2AR [3]; [8]
  competition binding curve vs isoproterenol (Extended Data Figure 3M), Fit: 61.20
  competition binding curve vs isoproterenol (Extended Data Figure 3M): 61.19 and 63.45 and 61.62 and 58.48
β2AR [3]; [9]
  competition binding curve vs isoproterenol (Extended Data Figure 3M), Fit: 85.17
  competition binding curve vs isoproterenol (Extended Data Figure 3M): 85.29 and 86.69 and 86.58 and 82.61
β2AR [3]; [10]
  competition binding curve vs isoproterenol (Extended Data Figure 3M), Fit: 97.00
  competition binding curve vs isoproterenol (Extended Data Figure 3M): 96.71 and 101.87 and 95.55 and 92.70
β2AR [3]; [11]
  competition binding curve vs isoproterenol (Extended Data Figure 3M), Fit: 99.03
  competition binding curve vs isoproterenol (Extended Data Figure 3M): 97.96 and 100.63 and 97.15 and 96.10
β2AR [3]; [12]
  competition binding curve vs isoproterenol (Extended Data Figure 3M), Fit: 0.48
  competition binding curve vs isoproterenol (Extended Data Figure 3M): 0.69 and 0.84 and -0.72 and 0.27
β2AR [3]; Sensor, Isoproterenol 1.00E-04 M
  competition binding curve vs isoproterenol (Extended Data Figure 3M): 1.32 and 1.71 and -0.50 and 0.84
β2AR [3]; [13]
  competition binding curve vs isoproterenol (Extended Data Figure 3M), Fit: 5.70
  competition binding curve vs isoproterenol (Extended Data Figure 3M): 7.08 and 7.24 and 5.39 and 6.57
β2AR [3]; [14]
  competition binding curve vs isoproterenol (Extended Data Figure 3M), Fit: 30.01
  competition binding curve vs isoproterenol (Extended Data Figure 3M): 30.57 and 29.08 and 29.48 and 29.71
β2AR [3]; [15]
  competition binding curve vs isoproterenol (Extended Data Figure 3M), Fit: 74.45
  competition binding curve vs isoproterenol (Extended Data Figure 3M): 73.61 and 76.73 and 72.17 and 74.17
β2AR [3]; [16]
  competition binding curve vs isoproterenol (Extended Data Figure 3M), Fit: 96.90
  competition binding curve vs isoproterenol (Extended Data Figure 3M): 94.98 and 101.48 and 95.93 and 97.46
β2AR [3]; [17]
  competition binding curve vs isoproterenol (Extended Data Figure 3M), Fit: 100.28
  competition binding curve vs isoproterenol (Extended Data Figure 3M): 98.04 and 104.41 and 99.80 and 100.75
β2AR [3]; Sensor, Isoproterenol 1.00E-10 M
  competition binding curve vs isoproterenol (Extended Data Figure 3M), Fit: 100.63
